A short description of data set [1]: Solubility of Melperone HCl in media. Type of data set: physicochemical. The settings on record: for solubility: phosphate buffer, aqueous buffer.
For data set [2], the system named is psychosis associated with PD. The settings on record: initial open-label studies; cited from earlier work.
Data set [3] concerns psychosis in patients with PD. The following applies: cited from earlier work.
For data set [4] the following is noted: cited from earlier work.
The conditions of data set [5]: clinical; cited from earlier work.

For orientation: solubility means the dissolved amount per volume that the medium holds. Read a high solubility as much dissolved substance. With `CC1CCN(CCCC(=O)c2ccc(F)cc2)CC1.Cl` [Melperone HCl, 1-(4-fluorophenyl)-4-(4-methyl-1-piperidinyl)-1-butanone hydrochloride], the solubility in data set [1] (pH 7.0 (phosphate)) is over 100 mg/mL; in data set [1] (pH 7.8 (phosphate)), 25.6 mg/mL.

As for `OCCOCCN1CCN(C2=Nc3ccccc3Sc3ccccc32)CC1` [quetiapine], in data set [2], the “efficacy in psychosis associated with PD” value is on record as “has shown efficacy” and the “patients with worsening of motor symptoms of PD” value is “up to 30%”.

With `CC1CCN(CCCC(=O)c2ccc(F)cc2)CC1` [melperone], in data set [3] (mean daily dose of 37.5 mg), the “time over which efficacy was maintained” value was 2 years. Also, in data set [3] (patients with PD), the “efficacy in the treatment of psychosis” value was “has shown efficacy” and the onset of efficacy result is reported as “within a week”. Further, the Solubility in words entry in data set [1] (aqueous buffers at acidic to neutral pH conditions) is on record as “freely soluble”. Further, the Solubility in words entry in data set [1] (higher pH values (above pH=7.5)) was “poorly soluble”. The “mean Tmax” value in data set [4] (oral tablet administration) is 1.5 to 3.0 h. Moreover, in data set [4] (oral), the absolute oral bioavailability is recorded as 50-70%. In addition, in data set [5], the “incidence of extrapyramidal side effect (EPS) or tardive dyskinesia” value is “low incidence”.
